The results in this text go back to article PMC7756412 (2020).

For experiment [1], the system named is Myc-dup5 (DNA, G4) GATCAGTTTTACTGATCGGGTGGGTAGGGTGGGTA
As to the kind of experiment: CD melting, 265 nm. The conditions noted are these: 120 mM Na+; 100 mM NaCl, 20 mM sodium phosphate pH 7; 5 µM DNA, 1 equiv PIQ; quadruplex domain; 53.2 to 69.7 °C.

Experiment [2] concerns Myc-dup3 (DNA, G4) TGAGGGTGGGTAGGGTGGGCTAGTCATTTTGACTAG
As to the kind of experiment: ITC, two-site fit. Particulars: 120 mM K+; 100 mM KCl, 20 mM potassium phosphate pH 7.0, 5% DMSO, 40 °C; high-affinity site.

For experiment [3] the test system is unchanged. As to the kind of experiment: CD melting, 265 nm. The conditions noted are these: 120 mM Na+; 100 mM NaCl, 20 mM sodium phosphate pH 7; 5 µM DNA, 1 equiv PIQ; quadruplex domain; 44.7 to 68.2 °C.
In experiment [4] the test system is Myc3l-dup5 (DNA, G4) GATCAGTTTTACTGATCGGGTGGTGGGTGGGGAAGG
As to the kind of experiment: ITC, two-site fit. The conditions noted are these: 120 mM K+; 100 mM KCl, 20 mM potassium phosphate pH 7.0, 5% DMSO, 40 °C; high-affinity site. In general terms: Isothermal titration calorimetry measures the heat released or taken up as one component is titrated into another.

For experiment [5], the system named is Myc-dup5 (DNA, G4) GATCAGTTTTACTGATCGGGTGGGTAGGGTGGGTA
As to the kind of experiment: NMR titration, chemical shift perturbation. Particulars: K+ (10 mM potassium phosphate); pH 7.0, 20 °C; 5' quadruplex-duplex junction; ITC isotherm not reliably fitted (Ka n.d.).

In experiment [6] the test system is Myc-dup3 (DNA, G4) TGAGGGTGGGTAGGGTGGGCTAGTCATTTTGACTAG
Kind of experiment: UV melting, 260 nm. The conditions noted are these: 120 mM Na+; 100 mM NaCl, 20 mM sodium phosphate pH 7; 1 equiv PIQ; duplex domain; derived from two Tm (63.6, 70.8).

The test system of experiment [7] is Myc-dup5 (DNA, G4) GATCAGTTTTACTGATCGGGTGGGTAGGGTGGGTA
As to the kind of experiment: UV melting, 260 nm. The conditions noted are these: 120 mM Na+; 100 mM NaCl, 20 mM sodium phosphate pH 7; 1 equiv PIQ; duplex domain; derived from two Tm (67.8, 73.5).

Experiment [8] concerns Myc3l-dup5 (DNA, G4) GATCAGTTTTACTGATCGGGTGGTGGGTGGGGAAGG
As to the kind of experiment: UV melting, 260 nm. The conditions noted are these: 120 mM Na+; 100 mM NaCl, 20 mM sodium phosphate pH 7; 1 equiv PIQ; duplex domain; derived from two Tm (69.5, 76.1).

Experiment [9] has the same test system. Kind of experiment: CD melting, 265 nm. Particulars: 120 mM Na+; 100 mM NaCl, 20 mM sodium phosphate pH 7; 1 equiv PIQ; quadruplex domain; derived from two Tm (66.3, 73.8).

In general, ΔTm refers to the change in melting temperature against a reference sample. Consider `CCN(CC)CCCNC(=O)c1ccc(-c2c3cccc(C)c3[n+](C)c3c2[nH]c2c(C)cccc23)cc1`, for which the ΔTm is 17 °C in experiment [1]; 23 °C in [3]; 7.2 °C in [6]; 5.7 °C in [7]; 6.6 °C in experiment [8]; 7.5 °C in [9]. The results for the Ka entry in [2] and in experiment [4] were “(1.6±0.4)×10^7 M^-1” and “(1.6±0.2)×10^7 M^-1”, respectively. The binding entry in experiment [5] is reported as “yes”.
